Data taken from ChEMBL document CHEMBL1201862, “PubChem BioAssay data set” (2004).
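Cultured in 96-well plates, cells were exposed to test compound for 48 hours across five concentrations. GI50 marks 50% less growth.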 Calls of active or inactive are those of the source. Rule as the data show it: active = GI50 up to about 1.1 µM and inactive = higher.

Assays:
Experiment in all cases: DTP human tumour cell line panel, 48 h
SF-295 = system: SF-295
UACC-257 = system: UACC-257
SK-MEL-2 = system: SK-MEL-2
HCC 2998 = system: HCC 2998
CCRF-CEM = system: CCRF-CEM
HOP-62 = system: HOP-62
UACC-62 = system: UACC-62
NCI-H226 = system: NCI-H226
MOLT-4 = system: MOLT-4
OVCAR-5 = system: OVCAR-5
NCI-H460 = system: NCI-H460
HCT-15 = system: HCT-15
Malme-3M = system: Malme-3M
UO-31 = system: UO-31
SF-268 = system: SF-268
HL-60 = system: HL-60
MDA-MB-435 = system: MDA-MB-435
DU-145 = system: DU-145
T47D = system: T47D
NCI/ADR-RES = system: NCI/ADR-RES

`Cc1ccc(C(=O)c2nnc(C(=O)c3ccc(C)cc3)nn2)cc1` was tested, and the GI50 (SF-295) was 52.8 µM (inactive), the GI50 (UACC-257) was 58.3 µM (inactive) and the GI50 (SK-MEL-2) was 38.4 µM (inactive). For the same molecule, the GI50 (HCC 2998) was > 100 µM (inactive), the GI50 (CCRF-CEM) was 18.8 µM (inactive) and the GI50 (HOP-62) was 39.4 µM (inactive). For the same molecule, the GI50 (UACC-62) was 36.1 µM (inactive), the GI50 (NCI-H226) was 56 µM (inactive) and the GI50 (MOLT-4) was 34.1 µM (inactive). The GI50 (OVCAR-5) was 81.1 µM (inactive), the GI50 (NCI-H460) was 18.4 µM (inactive) and the GI50 (HCT-15) was 76 µM. For the same molecule, the GI50 (Malme-3M) was 65.5 µM (inactive), the GI50 (UO-31) was 39.2 µM (inactive) and the GI50 (SF-268) was 21 µM (inactive). For the same molecule, the GI50 (HL-60) was 19.7 µM (inactive).

`c1ccc(Sc2nc(Sc3ccccc3)nc(Sc3ccccc3)n2)cc1` was tested, and the GI50 (SF-295) was 63.7 µM (inactive), the GI50 (UACC-257) was 30.3 µM (inactive) and the GI50 (SK-MEL-2) was 37.2 µM (inactive). The GI50 (HCC 2998) was 18.1 µM (inactive), the GI50 (MDA-MB-435) was 52.1 µM (inactive) and the GI50 (CCRF-CEM) was 6.46 µM (inactive). For the same molecule, the GI50 (DU-145) was 21.1 µM (inactive), the GI50 (HOP-62) was 35.7 µM (inactive) and the GI50 (UACC-62) was > 100 µM (inactive). For the same molecule, the GI50 (NCI-H226) was 25.9 µM (inactive), the GI50 (MOLT-4) was 17.8 µM (inactive) and the GI50 (OVCAR-5) was 58.7 µM (inactive). For the same molecule, the GI50 (NCI-H460) was 47.6 µM (inactive), the GI50 (HCT-15) was 33.4 µM and the GI50 (T47D) was 22.3 µM (inactive). The GI50 (Malme-3M) was > 100 µM (inactive), the GI50 (UO-31) was 57 µM (inactive) and the GI50 (SF-268) was 32 µM (inactive). For the same molecule, the GI50 (HL-60) was 6.38 µM (inactive).

In the case of `Cc1cc(C)cc(Nc2nnc3n2S(=O)(=O)c2cc(C#N)c(Cl)cc2S3)c1`, the GI50 (SF-295) is reported as 2.84 µM (inactive), the GI50 (UACC-257) is reported as 1.44 µM (inactive) and the GI50 (NCI/ADR-RES) is reported as 2.44 µM (inactive). For the same molecule, the GI50 (SK-MEL-2) was 7.53 µM (inactive), the GI50 (MDA-MB-435) was 3.03 µM (inactive) and the GI50 (CCRF-CEM) was 1.07 µM (active). For the same molecule, the GI50 (DU-145) was 3.14 µM (inactive), the GI50 (HOP-62) was 2.77 µM (inactive) and the GI50 (UACC-62) was 3.97 µM (inactive). The GI50 (NCI-H226) was 10.6 µM (inactive), the GI50 (MOLT-4) was 1.11 µM (active) and the GI50 (OVCAR-5) was 2.83 µM (inactive). For the same molecule, the GI50 (NCI-H460) was 3.14 µM (inactive), the GI50 (HCT-15) was 2.52 µM and the GI50 (T47D) was 3.26 µM (inactive). For the same molecule, the GI50 (Malme-3M) was 1.13 µM (inactive), the GI50 (UO-31) was 4.86 µM (inactive) and the GI50 (SF-268) was 2.2 µM (inactive). The GI50 (HL-60) was 1.68 µM (inactive).

With `COc1ccc(/C=C2\CCC(C)C3C2=NN(c2ccccc2)C3c2ccc(OC)c(OC)c2)cc1OC` (stereo unspecified) the GI50 (SF-295) was 2.64 µM (inactive), the GI50 (UACC-257) was 4.34 µM (inactive) and the GI50 (NCI/ADR-RES) was 3.18 µM (inactive). The GI50 (SK-MEL-2) was 3.04 µM (inactive), the GI50 (MDA-MB-435) was 3.64 µM (inactive) and the GI50 (CCRF-CEM) was 1.87 µM (inactive). The GI50 (DU-145) was 3.01 µM (inactive), the GI50 (UACC-62) was 3.43 µM (inactive) and the GI50 (NCI-H226) was 2.69 µM (inactive). For the same molecule, the GI50 (MOLT-4) was 2.7 µM (inactive), the GI50 (OVCAR-5) was 2.65 µM (inactive) and the GI50 (HCT-15) was 3.01 µM. The GI50 (T47D) was 1.71 µM (inactive), the GI50 (Malme-3M) was 3.08 µM (inactive) and the GI50 (UO-31) was 6.12 µM (inactive). For the same molecule, the GI50 (SF-268) was 3.89 µM (inactive) and the GI50 (HL-60) was 1.54 µM (inactive).
